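Growth conditions: 96-well plates. Treatment: test compound, 48 hours, 5 concentrations. Analysis: linear interpolation between bracketing concentrations; unreached endpoints set to highest concentration. GI50 marks 50% less growth.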 Active and inactive are the calls of the source. Cut-off read from the data, not from the text of the source: active = GI50 up to about 1.1 µM and inactive = higher.
Tests used:
Test in all cases: NCI tumour cell line growth inhibition, 48 h
CCRF-CEM = system: CCRF-CEM
HOP-92 = system: HOP-92
HT-29 = system: HT-29
K562 = system: K562
M14 = system: M14
MDA-N = system: MDA-N
NCI-H23 = system: NCI-H23
OVCAR-4 = system: OVCAR-4
OVCAR-8 = system: OVCAR-8
RXF 393 = system: RXF 393
SF-295 = system: SF-295
SK-MEL-28 = system: SK-MEL-28
SK-MEL-5 = system: SK-MEL-5
SNB-75 = system: SNB-75
UACC-62 = system: UACC-62
ACHN = system: ACHN
NCI-H460 = system: NCI-H460
SF-539 = system: SF-539

Measured: GI50

CCOC(=O)CSc1[nH]c2nc(C)nc(Cl)c2c1C#N
inactive: CCRF-CEM > 10 µM | HOP-92 > 10 µM | HT-29 > 10 µM | K562 > 10 µM | M14 > 10 µM | MDA-N > 10 µM | NCI-H23 > 10 µM | OVCAR-4 > 10 µM | OVCAR-8 > 10 µM | RXF 393 > 10 µM | SF-295 > 10 µM | SK-MEL-28 > 10 µM | SK-MEL-5 > 10 µM | SNB-75 > 10 µM | UACC-62 > 10 µM

Cc1cc(-c2ccc(Cl)cc2)c(C#N)c(=S)n1C1OC(CO)C(O)C(O)C1O (centres undefined)
inactive: ACHN > 100 µM | CCRF-CEM > 100 µM | HT-29 > 100 µM | M14 > 100 µM | MDA-N > 100 µM | NCI-H23 > 100 µM | NCI-H460 > 100 µM | OVCAR-4 > 100 µM | OVCAR-8 > 100 µM | RXF 393 > 100 µM | SF-295 > 100 µM | SF-539 > 100 µM | SK-MEL-28 > 100 µM | SK-MEL-5 > 100 µM | SNB-75 20.1 µM | UACC-62 > 100 µM

N=C(NCc1ccccc1)N/N=C\c1ccnc2ccccc12
inactive: ACHN 15.3 µM | CCRF-CEM 1.87 µM | HOP-92 1.43 µM | HT-29 11.2 µM | K562 4.31 µM | M14 4.84 µM | MDA-N 10.9 µM | NCI-H23 15.7 µM | NCI-H460 13.9 µM | OVCAR-4 11.7 µM | OVCAR-8 13.5 µM | SF-295 15.3 µM | SF-539 15.7 µM | SK-MEL-28 12 µM | SK-MEL-5 6.52 µM | SNB-75 8.04 µM | UACC-62 15.1 µM

O=[N+]([O-])c1ccc(Cl)c2c([N+](=O)[O-])cccc12
inactive: CCRF-CEM 2.36 µM | HOP-92 3.96 µM | HT-29 3.26 µM | K562 4.02 µM | MDA-N 2.18 µM | NCI-H23 9.27 µM | OVCAR-4 6.22 µM | OVCAR-8 3.5 µM | RXF 393 > 10 µM | SF-295 > 10 µM | SF-539 3.06 µM | SK-MEL-28 7.93 µM | SK-MEL-5 2.33 µM | SNB-75 5.38 µM | UACC-62 5.46 µM

COC([C@@H](OC(=O)c1ccccc1)[C@H](OC(=O)c1ccccc1)C(O)COC(=O)c1ccccc1)n1cc(C)c(=O)[nH]c1=O (some centres undefined)
inactive: ACHN 31.6 µM | HT-29 15.7 µM | K562 13.7 µM | M14 22.8 µM | MDA-N 30.9 µM | NCI-H23 29.4 µM | NCI-H460 27.3 µM | OVCAR-4 7.83 µM | OVCAR-8 39.1 µM | RXF 393 14 µM | SF-295 24.4 µM | SK-MEL-28 39.3 µM | SK-MEL-5 11.7 µM | SNB-75 22.5 µM | UACC-62 17.3 µM

Oc1ccc(-c2nc(-c3cccnc3)c(-c3ccc(Cl)cc3)[nH]2)cc1O
inactive: ACHN 9.95 µM | CCRF-CEM 4.48 µM | HT-29 14.6 µM | K562 > 100 µM | M14 13.6 µM | MDA-N 11.7 µM | NCI-H23 11.7 µM | OVCAR-4 16.1 µM | OVCAR-8 11.9 µM | RXF 393 12.7 µM | SF-295 16.2 µM | SK-MEL-28 17.5 µM | SK-MEL-5 13 µM | SNB-75 6.05 µM | UACC-62 11.2 µM

COC(=O)C1=C(OC(=O)c2ccccc2)C(C(=O)OC)[C@@]2(O)[C@@H](C(=O)OC)[C@H](C)C[C@@H]1[C@@H]2C(=O)OC (some centres undefined)
inactive: ACHN 31.6 µM | CCRF-CEM 8.89 µM | HT-29 34.6 µM | M14 28.3 µM | MDA-N 21.4 µM | NCI-H23 30.8 µM | NCI-H460 25.3 µM | OVCAR-4 31.6 µM | OVCAR-8 26.4 µM | RXF 393 14.4 µM | SF-295 35.1 µM | SF-539 14.5 µM | SK-MEL-28 27.2 µM | SK-MEL-5 31.9 µM | SNB-75 22.9 µM | UACC-62 39.7 µM

COc1cccc([C@@H]2C/C(=N\NC(=O)C(=O)N[C@@H](C)c3ccccc3)c3cc4c(cc3N2)OCO4)c1
inactive: ACHN > 100 µM | CCRF-CEM 28.1 µM | HOP-92 > 100 µM | K562 13.2 µM | M14 34.1 µM | MDA-N 7.19 µM | OVCAR-4 74 µM | RXF 393 > 100 µM | SF-295 36.6 µM | SF-539 23.8 µM | SK-MEL-28 > 100 µM | SK-MEL-5 3.06 µM | SNB-75 22.5 µM | UACC-62 17.1 µM

Cc1ccc2c(c1)NC(c1ccc(C(=O)O)cc1)c1cccn1-2 (centres undefined)
inactive: ACHN 19.3 µM | CCRF-CEM > 100 µM | HT-29 78.3 µM | K562 > 100 µM | M14 46.8 µM | MDA-N 75.2 µM | NCI-H23 > 100 µM | NCI-H460 66.5 µM | OVCAR-4 17.2 µM | RXF 393 19.7 µM | SF-295 37.8 µM | SF-539 > 100 µM | SK-MEL-28 > 100 µM | SK-MEL-5 > 100 µM | SNB-75 18.7 µM | UACC-62 42.8 µM

From ChEMBL document CHEMBL1201862, “PubChem BioAssay data set” (2004)
